This is an account of results in patent US9533952B2, “N-prop-2-ynyl carboxamide derivatives and their use as TRPA1 antagonists” (Orion Corporation, priority 2012, dated 2017).

pIC50: −log10 of the molar value.

In general, pIC50 refers to the negative decadic logarithm of the IC50, by convention in mol/L. Read a low pIC50 as a large IC50.

The target in this test is TRPA1 (Homo sapiens, UniProt O75762). The test is described as follows: Determination of TRPA1 activity in vitro (TRPA1 antagonism in vitro). As to conditions: procedure of Wei et al., Anesthesiology 111 (2009) 147-154. The format is cell-based.
TRPA1, sequence (O75762 whole entry): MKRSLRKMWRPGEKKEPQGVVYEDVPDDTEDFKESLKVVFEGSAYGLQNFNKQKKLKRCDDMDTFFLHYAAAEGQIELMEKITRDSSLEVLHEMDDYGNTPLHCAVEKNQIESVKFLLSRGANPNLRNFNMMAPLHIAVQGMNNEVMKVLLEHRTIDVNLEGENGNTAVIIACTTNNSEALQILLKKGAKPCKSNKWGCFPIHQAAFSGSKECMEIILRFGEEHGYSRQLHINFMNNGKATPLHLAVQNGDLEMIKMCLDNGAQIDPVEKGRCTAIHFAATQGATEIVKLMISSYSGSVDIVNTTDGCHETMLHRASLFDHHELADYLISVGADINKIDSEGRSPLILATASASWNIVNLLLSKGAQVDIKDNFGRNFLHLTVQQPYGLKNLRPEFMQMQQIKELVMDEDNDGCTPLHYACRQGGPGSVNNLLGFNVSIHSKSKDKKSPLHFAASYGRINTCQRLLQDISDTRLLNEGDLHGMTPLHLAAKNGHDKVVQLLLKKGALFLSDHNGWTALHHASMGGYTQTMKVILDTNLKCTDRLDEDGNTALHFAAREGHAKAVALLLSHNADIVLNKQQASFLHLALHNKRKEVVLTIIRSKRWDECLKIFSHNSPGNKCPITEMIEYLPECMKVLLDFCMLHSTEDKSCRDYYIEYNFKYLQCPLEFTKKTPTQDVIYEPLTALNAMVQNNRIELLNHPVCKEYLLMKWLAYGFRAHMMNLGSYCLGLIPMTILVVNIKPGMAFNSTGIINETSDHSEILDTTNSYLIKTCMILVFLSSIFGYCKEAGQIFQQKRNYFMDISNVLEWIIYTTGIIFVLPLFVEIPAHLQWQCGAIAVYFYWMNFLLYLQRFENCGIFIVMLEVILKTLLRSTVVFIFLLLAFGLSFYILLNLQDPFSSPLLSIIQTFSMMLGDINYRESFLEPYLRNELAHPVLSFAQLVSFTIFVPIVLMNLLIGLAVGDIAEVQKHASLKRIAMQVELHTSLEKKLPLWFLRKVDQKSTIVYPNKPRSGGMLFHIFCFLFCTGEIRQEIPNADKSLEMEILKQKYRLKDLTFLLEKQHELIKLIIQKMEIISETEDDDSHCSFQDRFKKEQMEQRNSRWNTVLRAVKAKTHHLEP
`C#CC(C)(C)NC(=O)c1cc(F)cnc1Nc1ccc(F)cc1` [Example 157, 5-Fluoro-2-(4-fluorophenylamino)-N-(2-methylbut-3-yn-2-yl)nicotinamide] had a pIC50 of 6.15.

Regarding `C#CC(C)(C)NC(=O)c1cc(F)cnc1NC(C)C(F)(F)F` (stereo not drawn) [Example 158, 5-Fluoro-N-(2-methylbut-3-yn-2-yl)-2-(1,1,1-trifluoropropan-2-ylamino)nicotinamide], the negative logarithm of the IC50 (pIC50) was 5.40.

With `C#CC(C)(C)NC(=O)c1cnccc1Nc1ccc(Cl)cc1` [Example 159, 4-(4-Chlorophenylamino)-N-(2-methylbut-3-yn-2-yl)nicotinamide], the negative logarithm of the IC50 (pIC50) is 4.94.

Take `C#CC(C)(C)NC(=O)c1cc(F)cnc1Nc1ccccc1` [Example 160, 5-Fluoro-N-(2-methylbut-3-yn-2-yl)-2-(phenylamino)nicotinamide]: the negative logarithm of the IC50 (pIC50) was 5.85.

`C#CC(C)(C)NC(=O)c1cncnc1Nc1ccc(C(F)(F)F)cc1` [Example 161, N-(2-Methylbut-3-yn-2-yl)-4-(4-(trifluoromethyl)phenylamino)-pyrimidine-5-carboxamide] had a pIC50 of 5.89.

In the case of `C#CC(C)(C)NC(=O)c1cc(F)cnc1NC(C)(C)C` [Example 162, 2-(tert-Butylamino)-5-fluoro-N-(2-methylbut-3-yn-2-yl)nicotinamide], the pIC50 was 5.43.

`C#CC(CC)(CC)NC(=O)c1cc(F)cnc1NC1CC(F)(F)C1` [Example 163, 2-(3,3-Difluorocyclobutylamino)-N-(3-ethylpent-1-yn-3-yl)-5-fluoronicotinamide] had a negative logarithm of the IC50 (pIC50) of 7.00.

In turn, `C#CC(C)(CC)NC(=O)c1cc(F)cnc1NC1CC(F)(F)C1` (stereo not drawn) [Example 164, 2-(3,3-Difluorocyclobutylamino)-5-fluoro-N-(3-methylpent-1-yn-3-yl)nicotinamide] gave a pIC50 of 7.00.

As for `C#CC(C)(C)NC(=O)c1cccnc1Nc1cc(F)cc(OC)c1` [Example 165, 2-(3-Fluoro-5-methoxyphenylamino)-N-(2-methylbut-3-yn-2-yl)nicotinamide], the pIC50 was 5.40.

Consider `C#CC(C)(CC)NC(=O)c1cccnc1Nc1cc(F)cc(OC)c1` (stereo not drawn) [Example 166, 2-(3-Fluoro-5-methoxyphenylamino)-N-(3-methylpent-1-yn-3-yl)nicotinamide], for which the pIC50 was 6.22.

`C#CC(C)(C)NC(=O)c1cccnc1Nc1cc(Cl)cc(OC)c1` [Example 167, 2-(3-Chloro-5-methoxyphenylamino)-N-(2-methylbut-3-yn-2-yl)nicotinamide] gave a pIC50 of 5.49.

`C#CC(C)(CC)NC(=O)c1cccnc1Nc1cc(Cl)cc(OC)c1` (stereo not drawn) [Example 168, 2-(3-Chloro-5-methoxyphenylamino)-N-(3-methylpent-1-yn-3-yl)nicotinamide] showed a pIC50 of 6.10.

`C#CC(C)(C)NC(=O)c1cccnc1Nc1cccc(OC)c1F` [Example 169, 2-(2-Fluoro-3-methoxyphenylamino)-N-(2-methylbut-3-yn-2-yl)nicotinamide] showed a pIC50 of 4.46.

Turning to `C#CC(C)(CC)NC(=O)c1cccnc1Nc1cccc(OC)c1F` (stereo not drawn) [Example 170, 2-(2-Fluoro-3-methoxyphenylamino)-N-(3-methylpent-1-yn-3-yl)nicotinamide], the pIC50 was 5.31.

In the case of `C#CC(C)(CC)NC(=O)c1cc(F)cnc1Nc1ccc(F)cc1` (stereo not drawn) [Example 171, 5-Fluoro-2-(4-fluorophenylamino)-N-(3-methylpent-1-yn-3-yl)nicotinamide], the pIC50 was 6.52.

The compound `C#CC(C)(CC)NC(=O)c1cc(F)cnc1Nc1ccccc1` (stereo not drawn) [Example 172, 5-Fluoro-N-(3-methylpent-1-yn-3-yl)-2-(phenylamino)nicotinamide] showed a pIC50 of 6.52.

`C#CC(C)(C)NC(=O)c1cccnc1Nc1ccc(F)cc1F` [Example 173, 2-(2,4-Difluorophenylamino)-N-(2-methylbut-3-yn-2-yl)nicotinamide]: the pIC50 is 5.72.

The compound `C#CC(C)(CC)NC(=O)c1cccnc1Nc1ccc(F)cc1F` (stereo not drawn) [Example 174, 2-(2,4-Difluorophenylamino)-N-(3-methylpent-1-yn-3-yl)nicotinamide] had a negative-log IC50 (pIC50) of 6.40.

In turn, `C#CC(C)(C)NC(=O)c1cc(F)cnc1Nc1cccc(F)c1` [Example 175, 5-Fluoro-2-(3-fluorophenylamino)-N-(2-methylbut-3-yn-2-yl)nicotinamide] gave a pIC50 of 6.05.

The compound `C#CC(C)(CC)NC(=O)c1cc(F)cnc1Nc1cccc(F)c1` (stereo not drawn) [Example 176, 5-Fluoro-2-(3-fluorophenylamino)-N-(3-methylpent-1-yn-3-yl)nicotinamide] had a negative logarithm of the IC50 (pIC50) of 6.52.

Take `C#CC(C)(CC)NC(=O)c1cc(Cl)cnc1NC1CC(F)(F)C1` (stereo not drawn) [Example 177, 5-Chloro-2-(3,3-difluorocyclobutylamino)-N-(3-methylpent-1-yn-3-yl)nicotinamide]: the pIC50 was 6.52.

The compound `C#CC(C)(CC)NC(=O)c1cc(F)cnc1Nc1cccc(C#N)c1` (stereo not drawn) [Example 178, 2-(3-Cyanophenylamino)-5-fluoro-N-(3-methylpent-1-yn-3-yl)nicotinamide] gave a negative logarithm of the IC50 (pIC50) of 6.05.

In turn, `C#CC(C)(C)NC(=O)c1cccnc1Nc1cc(OC)ccc1F` [Example 179, 2-(2-Fluoro-5-methoxyphenylamino)-N-(2-methylbut-3-yn-2-yl)nicotinamide] showed a pIC50 of 4.97.

As to `C#CC(C)(CC)NC(=O)c1cccnc1Nc1cc(OC)ccc1F` (stereo not drawn) [Example 180, 2-(2-Fluoro-5-methoxyphenylamino)-N-(3-methylpent-1-yn-3-yl)nicotinamide], the pIC50 was 5.85.

Compound `C#CC(C)(C)NC(=O)c1cccnc1Nc1ccc(F)c(C#N)c1` [Example 181, 2-(3-Cyano-4-fluorophenylamino)-N-(2-methylbut-3-yn-2-yl)nicotinamide] showed a pIC50 of 5.57.

The compound `C#CC(C)(CC)NC(=O)c1cccnc1Nc1ccc(F)c(C#N)c1` (stereo not drawn) [Example 182, 2-(3-Cyano-4-fluorophenylamino)-N-(3-methylpent-1-yn-3-yl)nicotinamide] gave a pIC50 of 6.30.

`C#CC(C)(C)NC(=O)c1cccnc1Nc1cc(F)cc(C#N)c1` [Example 183, 2-(3-Cyano-5-fluorophenylamino)-N-(2-methylbut-3-yn-2-yl)nicotinamide] showed a pIC50 of 5.85.

Compound `C#CC(C)(CC)NC(=O)c1cccnc1Nc1cccc(F)c1` (stereo not drawn) [Example 184, 2-(3-Fluorophenylamino)-N-(3-methylpent-1-yn-3-yl)nicotinamide] showed a negative logarithm of the IC50 (pIC50) of 6.70.

Take `C#CC(C)(CC)NC(=O)c1cccnc1Nc1ccccc1F` (stereo not drawn) [Example 185, 2-(2-Fluorophenylamino)-N-(3-methylpent-1-yn-3-yl)nicotinamide]: the negative logarithm of the IC50 (pIC50) was 6.30.

For the compound `C#CC(C)(CC)NC(=O)c1cccnc1Nc1cc(F)cc(F)c1` (stereo not drawn) [Example 186, 2-(3,5-Difluorophenylamino)-N-(3-methylpent-1-yn-3-yl)nicotinamide], the pIC50 was 6.70.

With `C#CC(C)(CC)NC(=O)c1cccnc1Nc1cc(F)cc(C#N)c1` (stereo not drawn) [Example 187, 2-(3-Cyano-5-fluorophenylamino)-N-(3-methylpent-1-yn-3-yl)nicotinamide], the pIC50 is 6.40.

`C#CC(C)(C)NC(=O)c1cccnc1Nc1cc(OC)ccc1Cl` [Example 188, 2-(2-Chloro-5-methoxyphenylamino)-N-(2-methylbut-3-yn-2-yl)nicotinamide]: the negative-log IC50 (pIC50) was 4.78.

`C#CC(C)(CC)NC(=O)c1cccnc1Nc1cc(OC)ccc1Cl` (stereo not drawn) [Example 189, 2-(2-Chloro-5-methoxyphenylamino)-N-(3-methylpent-1-yn-3-yl)nicotinamide] showed a pIC50 of 5.52.

The compound `C#CC(C)(CC)NC(=O)c1cccnc1Nc1ccccc1` (stereo not drawn) [Example 190, N-(3-Methylpent-1-yn-3-yl)-2-(phenylamino)nicotinamide] showed a pIC50 of 6.40.

As to `C#CC(C)(CC)NC(=O)c1cccnc1NC1CCC(F)(F)CC1` (stereo not drawn) [Example 191, 2-(4,4-Difluorocyclohexylamino)-N-(3-methylpent-1-yn-3-yl)nicotinamide], the pIC50 is 6.22.

In turn, `C#CC(C)(CC)NC(=O)c1cccnc1Nc1ccc(OC)c(Cl)c1` (stereo not drawn) [Example 192, 2-(3-Chloro-4-methoxyphenylamino)-N-(3-methylpent-1-yn-3-yl)nicotinamide] showed a pIC50 of 6.15.

In turn, `C#CC(C)(C)NC(=O)c1cccnc1Nc1ccc(F)c(OC)c1` [Example 193, 2-(4-Fluoro-3-methoxyphenylamino)-N-(2-methylbut-3-yn-2-yl)nicotinamide] had a negative logarithm of the IC50 (pIC50) of 4.95.

Regarding `C#CC(C)(CC)NC(=O)c1cccnc1Nc1ccc(F)c(OC)c1` (stereo not drawn) [Example 194, 2-(4-Fluoro-3-methoxyphenylamino)-N-(3-methylpent-1-yn-3-yl)nicotinamide], the pIC50 was 5.80.

`C#CC(C)(CC)NC(=O)c1cccnc1Nc1ccc(F)c(F)c1` (stereo not drawn) [Example 195, 2-(3,4-Difluorophenylamino)-N-(3-methylpent-1-yn-3-yl)nicotinamide] had a negative logarithm of the IC50 (pIC50) of 7.00.

In turn, `C#CC(C)(C)NC(=O)c1cccnc1Nc1ccc(Cl)c(OC)c1` [Example 196, 2-(4-Chloro-3-methoxyphenylamino)-N-(2-methylbut-3-yn-2-yl)nicotinamide] had a negative-log IC50 (pIC50) of 5.49.

In turn, `C#CC(C)(CC)NC(=O)c1cccnc1Nc1ccc(Cl)c(OC)c1` (stereo not drawn) [Example 197, 2-(4-Chloro-3-methoxyphenylamino)-N-(3-methylpent-1-yn-3-yl)nicotinamide] showed a pIC50 of 6.15.

Turning to `C#CC(C)(CC)NC(=O)c1cccnc1Nc1ccc(F)cc1` (stereo not drawn) [Example 198, 2-(4-Fluorophenylamino)-N-(3-methylpent-1-yn-3-yl)nicotinamide], the pIC50 is 6.70.
